From the NIST ThermoML archive (doi:10.1007/s10765-005-8590-7)

Legend:
[1] = Fluid (supercritical or subcritical phases), Constant-volume piezometry
[2] = xn = mol fraction of the nth substance listed; conditions: Fluid (supercritical or subcritical phases), Constant-volume piezometry, x2 = 0

O [water]
[1]
Conditions | mass density [kg/m3]
270.15 K, 4074.2 kPa | 1001.55
271.17 K, 3818.6 kPa | 1001.52
272.04 K, 5219 kPa | 1002.3
272.13 K, 3596.6 kPa | 1001.49
273.1 K, 3402.1 kPa | 1001.46
273.15 K, 5009.6 kPa | 1002.26
274.12 K, 13437 kPa | 1006.52
274.15 K, 3220.1 kPa | 1001.42
274.15 K, 4843.5 kPa | 1002.23
275.15 K, 4716.5 kPa | 1002.19
275.16 K, 3074.5 kPa | 1001.39
275.18 K, 13355 kPa | 1006.48
276.12 K, 4614.4 kPa | 1002.16
276.16 K, 13306 kPa | 1006.44
276.17 K, 2960.4 kPa | 1001.35
276.18 K, 13305 kPa | 1006.44
277.15 K, 2875.8 kPa | 1001.32
277.15 K, 4535.3 kPa | 1002.12
277.16 K, 13282 kPa | 1006.4
278.13 K, 4490.8 kPa | 1002.08
278.16 K, 2819.8 kPa | 1001.27
278.16 K, 13288 kPa | 1006.35
279.1 K, 4468.4 kPa | 1002.03
279.16 K, 2790.3 kPa | 1001.23
279.17 K, 13328 kPa | 1006.3
280.1 K, 4469.1 kPa | 1001.99
280.17 K, 13374 kPa | 1006.26
281.08 K, 2807.6 kPa | 1001.14
281.14 K, 4509 kPa | 1001.94
281.17 K, 13456 kPa | 1006.21
282.13 K, 13562 kPa | 1006.16
283.15 K, 4649.5 kPa | 1001.84
283.18 K, 13665 kPa | 1006.11
285.14 K, 13994 kPa | 1006.01
286.05 K, 5038.7 kPa | 1001.69
288.15 K, 14714 kPa | 1005.84
289.17 K, 5677.6 kPa | 1001.51
292.12 K, 6505.6 kPa | 1001.33
296.13 K, 7938.8 kPa | 1001.06
300.13 K, 9714.8 kPa | 1000.78
305.19 K, 12424 kPa | 1000.41
308.16 K, 14234 kPa | 1000.19

O [water] + N
[2]
Conditions | mass density [kg/m3]
270.15 K, 4074.2 kPa | 1001.55
271.17 K, 3818.6 kPa | 1001.52
272.04 K, 5219 kPa | 1002.3
272.13 K, 3596.6 kPa | 1001.49
273.1 K, 3402.1 kPa | 1001.46
273.15 K, 5009.6 kPa | 1002.26
274.12 K, 13437 kPa | 1006.52
274.15 K, 3220.1 kPa | 1001.42
274.15 K, 4843.5 kPa | 1002.23
275.15 K, 4716.5 kPa | 1002.19
275.16 K, 3074.5 kPa | 1001.39
275.18 K, 13355 kPa | 1006.48
276.12 K, 4614.4 kPa | 1002.16
276.16 K, 13306 kPa | 1006.44
276.17 K, 2960.4 kPa | 1001.35
276.18 K, 13305 kPa | 1006.44
277.15 K, 2875.8 kPa | 1001.32
277.15 K, 4535.3 kPa | 1002.12
277.16 K, 13282 kPa | 1006.4
278.13 K, 4490.8 kPa | 1002.08
278.16 K, 2819.8 kPa | 1001.27
278.16 K, 13288 kPa | 1006.35
279.1 K, 4468.4 kPa | 1002.03
279.16 K, 2790.3 kPa | 1001.23
279.17 K, 13328 kPa | 1006.3
280.1 K, 4469.1 kPa | 1001.99
280.17 K, 13374 kPa | 1006.26
281.08 K, 2807.6 kPa | 1001.14
281.14 K, 4509 kPa | 1001.94
281.17 K, 13456 kPa | 1006.21
282.13 K, 13562 kPa | 1006.16
283.15 K, 4649.5 kPa | 1001.84
283.18 K, 13665 kPa | 1006.11
285.14 K, 13994 kPa | 1006.01
286.05 K, 5038.7 kPa | 1001.69
288.15 K, 14714 kPa | 1005.84
289.17 K, 5677.6 kPa | 1001.51
292.12 K, 6505.6 kPa | 1001.33
296.13 K, 7938.8 kPa | 1001.06
300.13 K, 9714.8 kPa | 1000.78
305.19 K, 12424 kPa | 1000.41
308.16 K, 14234 kPa | 1000.19
